Assay results taken from PMC12523303, “Multi-Fused S,N-Heterocyclic Compounds for Targeting α-Synuclein Aggregates” (Cells, 2025).
Where two headings read alike, the source gives them in different places.

Legend:
[1] = biological target: T1, [^3H]PiB binding in post-mortem Alzheimer’s disease (AD) brain tissue (Homo sapiens, UniProt P05067); assay: Competition binding vs [3H]PiB in post-mortem AD brain tissue
T1 construct: from tissue; host or cells: post-mortem AD brain tissue
Text: (§1) We assessed the binding affinity of LMD-022 using a radioligand competition binding assay in post-mortem PD brain tissues. […] To evaluate potential off-target binding in AD brain tissues, we conducted additional binding assays using a panel of AD-related radioligands, including [^3H]PiB, [^3H]MK-6240, [^3H]Z-2340, and [^3H]PI-2620. […] Our future work will aim to optimize chemical yields of lead compounds, including LMD-022, and carry out α-syn fibril seed amplification assays or immunohistochemical co-localization with pathologic α-syn to verify target engagement as well as radiolabel lead molecules for in vivo PET imaging studies.

[2] = biological target: [^3H]PI-2620 binding in post-mortem Alzheimer’s disease (AD) brain tissue (Homo sapiens, UniProt P10636); assay: Competition binding vs [3H]PI-2620 in post-mortem AD brain tissue
Sequence of [^3H]PI-2620 binding in post-mortem Alzheimer’s disease (AD) brain tissue (P10636 623-695 limits assumed): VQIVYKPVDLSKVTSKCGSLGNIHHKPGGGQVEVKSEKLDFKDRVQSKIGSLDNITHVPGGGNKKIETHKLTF
Text: as §1

[3] = biological target: [^3H]MK-6240 binding in post-mortem Alzheimer’s disease (AD) brain tissue (Homo sapiens, UniProt P10636); assay: Competition binding vs [3H]MK-6240 in post-mortem AD brain tissue
Sequence of [^3H]MK-6240 binding in post-mortem Alzheimer’s disease (AD) brain tissue (P10636 623-758 limits assumed): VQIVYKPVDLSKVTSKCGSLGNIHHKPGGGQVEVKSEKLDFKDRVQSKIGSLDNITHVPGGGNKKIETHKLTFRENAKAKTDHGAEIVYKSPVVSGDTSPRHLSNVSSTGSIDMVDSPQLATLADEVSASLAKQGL
Text: as §1

[4] = biological target: T2, α-synuclein (α-syn) aggregates in PD brain homogenates (Homo sapiens, UniProt P37840); assay: Two point screening assay (30 nM and 300 nM) vs [3H]asyn-44 in human PD brain homogenates; format: binding
T2 construct: Anterior cingulate cortex tissue from a Parkinson’s disease (PD) case; tissue Banner Sun Health Research Institute (Dr. Thomas Beach); host or cells: post-mortem human PD anterior cingulate cortex homogenate
Description: Screening assays for the test compounds were performed at two concentrations—30 nM and 300 nM—using unlabelled competitors in human PD brain homogenates against [^3H]asyn-44 as previously described. […] Each assay was conducted in triplicate for both concentrations to ensure reproducibility and statistical reliability.

MDR1 = biological target: T3, MDR1 (Homo sapiens, UniProt P08183); assay: Bidirectional transport in MDR1-transfected MDCK cell monolayers; format: in vitro ADME; details: dog; for recovery at 2 μM: MDCK-MDR1, MDR1-MDCK permeability assay
T3 construct: host or cells: MDCK cells
T3 sequence (P08183 whole entry): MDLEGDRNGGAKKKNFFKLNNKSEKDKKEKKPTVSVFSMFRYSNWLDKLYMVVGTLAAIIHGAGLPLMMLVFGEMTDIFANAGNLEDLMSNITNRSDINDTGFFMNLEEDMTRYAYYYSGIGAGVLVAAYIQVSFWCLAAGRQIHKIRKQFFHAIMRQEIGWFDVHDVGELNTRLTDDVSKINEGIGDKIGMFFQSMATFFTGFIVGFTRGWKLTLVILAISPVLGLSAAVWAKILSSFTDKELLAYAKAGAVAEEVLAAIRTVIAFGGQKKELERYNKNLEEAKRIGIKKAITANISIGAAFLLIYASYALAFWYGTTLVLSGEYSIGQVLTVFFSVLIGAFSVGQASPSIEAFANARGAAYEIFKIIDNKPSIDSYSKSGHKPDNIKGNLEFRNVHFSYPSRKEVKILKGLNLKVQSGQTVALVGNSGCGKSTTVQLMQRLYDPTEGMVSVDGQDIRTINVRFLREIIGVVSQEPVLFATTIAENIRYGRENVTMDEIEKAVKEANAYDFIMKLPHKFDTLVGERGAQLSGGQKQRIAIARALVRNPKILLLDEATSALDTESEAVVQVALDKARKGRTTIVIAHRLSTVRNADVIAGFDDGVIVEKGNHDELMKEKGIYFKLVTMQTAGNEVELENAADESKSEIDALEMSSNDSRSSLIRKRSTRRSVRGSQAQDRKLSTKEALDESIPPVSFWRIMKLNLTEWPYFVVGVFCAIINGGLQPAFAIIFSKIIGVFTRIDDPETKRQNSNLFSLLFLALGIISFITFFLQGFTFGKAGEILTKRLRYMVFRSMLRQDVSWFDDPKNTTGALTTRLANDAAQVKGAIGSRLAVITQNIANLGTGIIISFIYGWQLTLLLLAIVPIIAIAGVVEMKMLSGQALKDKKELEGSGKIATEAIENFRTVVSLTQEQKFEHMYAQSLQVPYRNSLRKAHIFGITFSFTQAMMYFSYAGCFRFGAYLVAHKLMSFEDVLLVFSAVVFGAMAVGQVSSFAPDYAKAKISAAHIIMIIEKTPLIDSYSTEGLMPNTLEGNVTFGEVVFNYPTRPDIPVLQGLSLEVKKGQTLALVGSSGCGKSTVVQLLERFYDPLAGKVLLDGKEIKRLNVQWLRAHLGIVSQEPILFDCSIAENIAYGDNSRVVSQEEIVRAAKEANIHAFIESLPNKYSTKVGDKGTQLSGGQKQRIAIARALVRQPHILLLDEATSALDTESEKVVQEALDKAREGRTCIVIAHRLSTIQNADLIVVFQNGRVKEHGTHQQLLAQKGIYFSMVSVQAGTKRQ
Description: (§2) MDR1-transfected MDCK cell monolayers, cultured for 5 days and obtained from the Netherlands Cancer Institute, were used for the in vitro bidirectional transport studies. Cells were maintained in Dulbecco’s Modified Eagle Medium (DMEM) supplemented with 10% fetal bovine serum (FBS) and 1% penicillin–streptomycin. They were subcultured every other day at a split ratio of 1:3 to 1:5. For transport experiments, cells were seeded onto polycarbonate Transwell® filter inserts (Millipore) in 24-well plates at a density of 500,000 cells per well. After 24 h, the medium was replaced, and the cells were cultured for an additional 4 days to allow tight junction formation before initiating the transport assays. Transport studies were performed in duplicate using a 2 μM concentration of test compound, in both apical-to-basolateral (A→B) and basolateral-to-apical (B→A) directions. The apparent permeability coefficient (P_app) was calculated using the following equation: Papp (cm/s) = (Vr/C0) (1/S) (dC/dt)
(§3) • P_app is the apparent permeability, • V_r is the volume of the receiver chamber, • C0 is the initial concentration in the donor chamber, • S is the surface area of the cell monolayer (0.7 cm^2; for a 24-well insert), • dC/dt is the rate of appearance of the compound in the receiver chamber.
(§4) The efflux ratio was calculated as: (1) Efflux ratio=Papp B−A/Papp A−B
(§5) Bioanalysis was carried out using LC-MS/MS.

[5] = biological target: T4, MDR1-transfected MDCK cells (Homo sapiens, UniProt P08183); assay: as above; format: in vitro ADME; details: MDR1-MDCK
T4 construct: host or cells: MDCK cells
T4 sequence (P08183 whole entry): as above
Description: as §2, §3, §4, §5

[6] = biological target: T2, α-synuclein (α-syn) aggregates in PD brain homogenates; assay: In vitro competition (Ki) assay vs [3H]asyn-44 in PD brain homogenates; format: binding; details: 1 nM [3H]asyn-44
Description: Anterior cingulate cortex tissue from a Parkinson’s disease (PD) case was generously provided by Dr. Thomas Beach at the Banner Sun Health Research Institute in Arizona, USA. […] Preparation of the frozen blocks for binding assays followed previously established protocols.
The equilibrium inhibition constants (Ki) for the unlabelled compounds were measured against [^3H]asyn-44 using our previously reported procedure. For these assays, frozen aliquots of homogenized human brain tissue (stored at −80 °C) were used. Homogenates were prepared at 10 mg/mL in phosphate-buffered saline, then diluted with 50 mM Tris buffer (pH 7.0) to a working concentration of 1 mg/mL.
Unlabeled competitor compounds were initially dissolved in DMSO at 400 μM, then diluted with Tris buffer to 20 μM, resulting in a 5% DMSO concentration. A serial dilution series (ranging from 6 μM to 4 nM) was prepared in the same 5% DMSO/Tris buffer solution to maintain consistent solvent conditions throughout the assay.
To perform the binding assay, 50 μL of the appropriately diluted competitor solution was mixed with 50 μL of [^3H]asyn-44 (1 nM final concentration) and 800 μL of Tris buffer containing 20% ethanol and 0.1% bovine serum albumin (BSA). Then, 100 μL of the 1 mg/mL brain homogenate was added, bringing the final tissue concentration to 100 μg/mL. The reaction mixtures were incubated at room temperature for 60 min before filtration through Whatman GF/B glass fibre filters using a Brandel M-24R cell harvester (Gaithersburg, MD, USA). Filters were washed three times with 3 mL of Tris buffer containing 20% ethanol and 0.1% BSA.
After washing, retained radioactivity was measured using CytoScint-ES scintillation fluid following thorough vortexing. Specific binding was calculated by correcting for nonspecific binding (as described later), and the amount of bound radioligand was derived from the filter-associated radioactivity and the molar activity of the tritiated compound.

[7] = Metabolic stability in human liver microsomes; format: in vitro ADME
Description: Metabolic stability assays were conducted using pooled human liver microsomes (HLMs) to evaluate the rate of in vitro metabolic degradation of the test compound. Incubations were carried out in duplicate (n = 2) at a final compound concentration of 1 μM. The protein concentration of the microsomal suspension was adjusted to 0.5 mg/mL using phosphate buffer (100 mM, pH 7.4). Reactions were initiated by the addition of NADPH (final concentration 1 mM) and incubated at 37 °C. Aliquots were taken at four time points: 0, 5, 15, and 30 min. Each reaction was quenched with ice-cold acetonitrile containing internal standard, followed by centrifugation to pellet proteins. Supernatants were analyzed using a validated LC-MS/MS method to determine the concentration of the parent compound at each time point. […] Metabolic stability was assessed by calculating the percentage of the parent compound remaining at each time point. The elimination rate constant (k), half-life (t1/2), and intrinsic clearance (CLint) were derived from the natural log-transformed concentration vs. time data, assuming first-order kinetics.

[8] = biological target: [^3H]Z-2340 binding in post-mortem Alzheimer’s disease (AD) brain tissue; assay: Competition binding vs [3H]Z-2340 in post-mortem AD brain tissue; design: species or system human
Text: as §1

T1 sequence (P05067 672-713 limits assumed): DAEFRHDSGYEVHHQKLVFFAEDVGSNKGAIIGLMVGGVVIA

O=C1NCc2nc(-c3cnc(N4CC[C@@H](F)C4)cn3)ccc21 [LMD-022]
Ki [1]: > 10 µM | Ki [2]: 2.76 µM | Ki [3]: > 10 µM | remaining activity at 0.03 µM ([4]; 30 nM competitor): 40% | remaining activity at 0.3 µM ([4]; 300 nM competitor): 15% | recovery at 2 μM (MDR1; A→B, read-out: Calculated recovery, A→B direction): 61.9% | recovery at 2 μM (MDR1; B→A, read-out: Calculated recovery, B→A direction): 120% | Papp A→B at 2 μM (MDR1; MDCK-MDR1, apical-to-basolateral, 2 μM, read-out: A→B apparent permeability): 40.6 ×10⁻⁶ cm/s | Papp B→A at 2 μM (MDR1; MDCK-MDR1, basolateral-to-apical, 2 μM, read-out: B→A apparent permeability): 37.6 ×10⁻⁶ cm/s | efflux ratio at 2 μM (MDR1; MDR1-MDCK, read-out: Efflux Ratio (B→A/A→B)): 0.93 | Efflux Category [5]: Not a substrate | Permeability Category [5]: High | Ki [6]: 0.016 µM | t1/2 ([7]; human liver microsomes (h-MR)): 1.26 h | % disappearance at 5 minutes relative to time zero ([7]; human liver microsomes, 5 min): 7.6% | % disappearance at 15 minutes relative to time zero ([7]; human liver microsomes, 15 min): 17.8% | % disappearance at 30 minutes relative to time zero ([7]; human liver microsomes, 30 min): 24.6% | Clearance Category ([7]; human liver microsomes, as per Cyprotex Website): Moderate | half-life at 1 μM ([7]; human, pooled human liver microsomes, pH 7.4, human liver microsomes (h-MR)): 1.25 h | remaining at 5 min, 1 μM ([7]; pooled human liver microsomes, pH 7.4, human liver microsomes, 1 μM, 5 min): 92.4% | remaining at 0.5 h, 1 μM ([7]; pooled human liver microsomes, pH 7.4, human liver microsomes, 1 μM, 30 min): 75.4% | Ki [8]: > 10 µM
